Results from patent publication US7084144B2, “Sulfonyl group containing compounds and their use for the treatment of erectile dysfunction” (The Jordanian Pharmaceutical MFG & Medical Equipment CO LTD, priority 2000, dated 2006).
Entries after “also recorded” stand apart in the source; their conditions may differ.

How the values were obtained:
[1] = system: male rats; test: Penile erection (responding rats, PEI, ED50) in male rats after oral administration; assay type: in vivo, rat; conditions: for PEI (penile erection indexes) for selected molecules: Tables 4-6, dose not given; for PEI (penile erection index) / responding rats % / Calculated ED50: male rats, oral; for PEI (penile erection index) / responding rats %: 10 rats used, 2 hours observation; for Calculated ED50: responding rats as a function of dose
Procedure: The purpose of the study was to compare the biological activity of compound 1 of the present invention with that of sildenafil. In particular, the respective ED50 value (ED=effective dose), erection episodes and penile erection indexes of said compounds in the treatment of male rats were determined. The penile erection index is an established means of determining the erection promoting properties of a substance (see e.g. Benassi-Benelli, F., Ferari, F., and Pellegrini Quaratotti, B., Arch. Int. Pharmacodyn., 242, 241–247, (1979), and Ang. H. H., Sim, M. K., Pharm. Sci., 3, 17–119, (1997) and references cited therein).
In these experiments, compound 1 of the present invention and sildenafil were administered to male rats orally. The doses for sildenafil were 0.0781, 0.1562, 0.3125 and 0.625 mg/kg body weight, while doses for compound 1 of the present invention were 0.3, 0.6, 1, and 2 mg/kg body weight. Both sildenafil and compound 1 of the present invention were dissolved in distilled water. Control animals were administered with water. During the experiments, the rats were placed in glass cages for observation and had free access to food and water. During 2 hours after administration of the investigated compound, the penile erection and self-sucking were monitored.

[2] = system: cGMP accumulation in isolated rabbit corpus carvenosum tissue; test: cGMP accumulation in isolated rabbit corpus carvenosum tissue (ELISA), with and without NO donor SNP; assay type: cell-based, White New Zealand rabbits; conditions: FIG. 1; for effect on the levels of cGMP: absence of NO donor, tested concentrations up to 100,000 nM
Procedure: (§1) Method for Analysis of cGMP & cAMP Synthesis and Accumulation in Penile Tissues: White New Zealand rabbits were sacrificed. Excise the penises rapidly after killing the animals, remove epidermal & connective tissue. Dissect out and discard the urethra carefully. Cut the penises longitudinally into 2 equal strips and then laterally to give about 20–40 segments. Pool and incubate the segments of the corpus cavernosum in Dulbecco's minimum essential Medium (MEM) at room temperature for one hour to allow the tissues to recover from preparative handling. Effect of Drug on cGMP and cAMP Formation:
(§2) Place one penile segment in triplicate for each drug dose in 200 μl MEM. Place one penile segment in triplicate for each drug dose with 10 μM SNP (sodium nitroprusside) in 200 μl MEM. (in the case of cGMP). Incubate the tubes at 37° C. for 30 min, stop the reaction by adding 200 μl of 1 mol/l perchloric acid and sonicate for 5 min. Neutralize the aliquots with 0.5 mol/l K3PO4.3H2O to pH 6.2 (240 μl), centrifuge and take the supernatant in aliquots. Keep at 4° C. and assay for the concentrations of cAMP and cGMP in the extract using ELISA (enzyme linked immunosorbant assay). Preparation of Zero sample: Add 200 ul MEM, 200 ul 1M perchloric acid and 240 μl 0.5 mol/L K3PO4.3H2O in one tube.
(§3) The main concentrations were in the range 0–20,000 or 100,000 nM. A stock solution of 1 mM for both drugs were prepared in distilled water. Serial dilution were prepared in MEM giving working drug concentrations of 0, 1000, 4000, 8000, 10000, 20000 and 100000 nM. In the case of cGMP the tests were carried out with and without NO donor (SNP). For this purpose 10 μM SNP was included when necessary.

[3] = system: cAMP accumulation in isolated rabbit corpus carvenosum tissue; test: cAMP accumulation in isolated rabbit corpus carvenosum tissue (ELISA); assay type: cell-based, White New Zealand rabbits; conditions: absence of NO donor, FIG. 2; for effect on the accumulation of cAMP levels: up to 20,000 nM
Procedure: as §1, §2, §3

## CN1CCN(S(=O)(=O)c2ccc3c(c2)OCO3)CC1 [Compound 1]
[1]
  PEI (penile erection indexes) for selected molecules: 1015
  Calculated ED50: ^(3)Calculated ED50 = 0.7822 mg/kg body weight
[1]; dose 0.3 mg/kg
  PEI (penile erection index): 22.5
  responding rats %: 15%
[1]; dose 0.6 mg/kg
  PEI (penile erection index): 260
  responding rats %: 40%
[1]; dose 1.0 mg/kg
  PEI (penile erection index): 665
  responding rats %: 70%
[1]; dose 2.0 mg/kg
  PEI (penile erection index): 1020
  responding rats %: 85%
[2]; NO donor added (10 μM SNP)
  concentration giving maximum increase of cGMP levels: about 4000 nM
[2]; NO donor added (10 μM SNP), at 10,000 nM
  effect on cGMP accumulation compared with sildenafil: better effect than sildenafil
[2]
  effect on the levels of cGMP: very little effect; also recorded: weak effect
[3]
  effect on the accumulation of cAMP levels: no effect at all
other
  melting point: 137 to 138 °C

## Cc1ccc(S(=O)(=O)N2CCN(C)CC2)cc1 [R0=—CH3; R1=—CH3 (Table 4)]
[1]
  PEI (penile erection indexes) for selected molecules: 240

## Cc1ccc(S(=O)(=O)NN2CCN(C)CC2)cc1 [R0=—CH3; R1=—CH3; n=0 (Table 6)]
[1]
  PEI (penile erection indexes) for selected molecules: 90

## CN1CCN(S(=O)(=O)c2ccccc2)CC1 [R0=—CH3; R1=—H (Table 4)]
[1]
  PEI (penile erection indexes) for selected molecules: 420

## CN1CCN(NS(=O)(=O)c2ccccc2)CC1 [R0=—CH3; R1=—H; n=0 (Table 6)]
[1]
  PEI (penile erection indexes) for selected molecules: 80

## CCCc1nn(C)c2c(=O)[nH]c(-c3cc(S(=O)(=O)N4CCN(C)CC4)ccc3OCC)nc12 [Sildenafil, sildenafil, reference compound]
[1]; dose 0.0781 mg/kg
  PEI (penile erection index): 90
  responding rats %: 30%
[1]; dose 0.1562 mg/kg
  PEI (penile erection index): 150
  responding rats %: 30%
[1]; dose 0.3125 mg/kg
  PEI (penile erection index): 350
  responding rats %: 50%
[1]; dose 0.625 mg/kg
  PEI (penile erection index): 980
  responding rats %: 70%
[1]
  Calculated ED50: ^(2)Calculated ED50 = 0.2473 mg/kg body weight
[2]; NO donor added (10 μM SNP)
  concentration giving maximum increase of cGMP levels: about 10,000 nM
[2]
  effect on the levels of cGMP: very little effect; also recorded: almost flat effect
[3]
  concentration giving maximum increase in cAMP levels: 8000–10,000 nM
  effect on the accumulation of cAMP levels: remarkable increase
